Measurements published in the supplement of paper PMC11962398.

How the values were obtained:
[1] = compound: T1, C[C@H]1CNCCN1c1nccc(-c2noc3c2CCC[C@@]32CCCc3sc(N)c(C#N)c32)n1 [BI-2493]; test: 1 - AUC of viability dose-response curve (sensitivity) (fraction); higher = more sensitive; conditions: 5 days
Description: (§1)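 PRISM pooled barcoded cancer cell line viability screen (Broad Institute) with BI-2493 at 8 doses in threefold dilutions from 0.00457 to 10 µmol/L, 5-day treatment; curves fitted per cell line. IC50 is undefined (placeholder) for resistant lines. AUC is capped at 1, and sensitivity is reported as 1 − AUC.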

[2] = compound: T1, BI-2493; conditions: 5 days
Description: as §1

Row | Test System | 1 - AUC of viability dose-response curve [1] | IC50 of cell viability [2] [µM]
1 | NCIH1703_LUNG | 0.0509 | > 10
2 | NCIH1792_LUNG | 0.342 | 1.04
3 | NCIH1793_LUNG | 0.16 | 8.29
4 | NCIH1838_LUNG | 0.0993 | > 10
5 | NCIH1876_LUNG | 0.0823 | 3.89
6 | NCIH1915_LUNG | 0.0137 | 9.46
7 | NCIH1944_LUNG | 0.22 | 8.69
8 | NCIH1975_LUNG | 0.0712 | 6.8
9 | NCIH2004RT_SOFT_TISSUE | 0.0737 | > 10
10 | NCIH2009_LUNG | 0.149 | 5.8
11 | NCIH2023_LUNG | 0.208 | 2.57
12 | NCIH2030_LUNG | 0.206 | 3.34
13 | NCIH2077_LUNG | 0.182 | 8.95
14 | NCIH2087_LUNG | 0.104 | 3.99
15 | NCIH2110_LUNG | 0.0708 | 6.61
16 | NCIH2122_LUNG | 0.138 | 3.6
17 | NCIH2126_LUNG | 0.142 | 9.82
18 | NCIH2170_LUNG | 0.0861 | > 10
19 | NCIH2171_LUNG | 0.0377 | 9.88
20 | NCIH2172_LUNG | 0.0555 | 8.7
21 | NCIH2228_LUNG | 0.0876 | 7.89
22 | NCIH2347_LUNG | 0.138 | 4.63
23 | NCIH2444_LUNG | 0.102 | 6.69
24 | NCIH2452_PLEURA | 0.00394 | > 10
25 | NCIN87_STOMACH | 0.00691 | 9.6
26 | NCO2_HAEMATOPOIETIC_AND_LYMPHOID_TISSUE | 0.117 | 4.33

Row | Test System | 1 - AUC of viability dose-response curve [1] | IC50 of cell viability [2] [µM]
27 | NIHOVCAR3_OVARY | 0.103 | 8.37
28 | NOMO1_HAEMATOPOIETIC_AND_LYMPHOID_TISSUE | 0.38 | 0.331
29 | NOZ_LIVER | 0.0154 | 9.22
30 | NP2_CENTRAL_NERVOUS_SYSTEM | 0.085 | 9.05
31 | NP3_CENTRAL_NERVOUS_SYSTEM | 0.0412 | 8.21
32 | NP5_CENTRAL_NERVOUS_SYSTEM | 0.108 | 3.54
33 | NUDHL1_HAEMATOPOIETIC_AND_LYMPHOID_TISSUE | 0.441 | 0.306
34 | NUGC3_STOMACH | 0.236 | 2.68
35 | NZOV9_OVARY | 0.155 | 8.42
36 | OACM51_OESOPHAGUS | 0.0865 | 6.83
37 | OAW42_OVARY | 0.104 | 5.86
38 | OC314_OVARY | 0.113 | 5.96
39 | OC316_OVARY | 0.113 | 5.73
40 | OCIAML2_HAEMATOPOIETIC_AND_LYMPHOID_TISSUE | 0.209 | 3
41 | OCIAML3_HAEMATOPOIETIC_AND_LYMPHOID_TISSUE | 0.23 | 2.15
42 | OCIC4P_OVARY | 0.115 | 6.47
43 | OCIC5X_OVARY | 0.0098 | 9.57
44 | OCILY3_HAEMATOPOIETIC_AND_LYMPHOID_TISSUE | 0.0575 | 7.48
45 | OCILY19_HAEMATOPOIETIC_AND_LYMPHOID_TISSUE | 0.19 | 3.56
46 | OCILY132_HAEMATOPOIETIC_AND_LYMPHOID_TISSUE | 0.0816 | 7.21
47 | OCIM1_HAEMATOPOIETIC_AND_LYMPHOID_TISSUE | 0.0683 | 6.84
48 | OCIP5X_OVARY | 0.00791 | 9.58
49 | OCUG1_BILIARY_TRACT | 0.132 | 4.77
50 | OE19_OESOPHAGUS | 0.168 | 4.24
51 | OE21_OESOPHAGUS | 0.112 | 3.82
52 | OE33_OESOPHAGUS | 0.041 | 8.75

Row | Test System | 1 - AUC of viability dose-response curve [1] | IC50 of cell viability [2] [µM]
53 | ONCODG1_OVARY | 0.0507 | 8.36
54 | ONDA9_CENTRAL_NERVOUS_SYSTEM | 0.0973 | 5.1
55 | ONS76_CENTRAL_NERVOUS_SYSTEM | 0.133 | 5.21
56 | OSC20_UPPER_AERODIGESTIVE_TRACT | 0.165 | 9.09
57 | OSRC2_KIDNEY | 0.0909 | 4.48
58 | OUMS23_LARGE_INTESTINE | 0.165 | 8.65
59 | OV17R_OVARY | 0.044 | 9.34
60 | OV56_OVARY | 0.0641 | > 10
61 | OVCAR8_OVARY | 0.00937 | 9.61
62 | OVISE_OVARY | 0.105 | 4.17
63 | OVK18_OVARY | 0.228 | 1.81
64 | OVKATE_OVARY | 0.086 | 4.22
65 | OVTOKO_OVARY | 0.123 | 4.32
66 | OZ_BILIARY_TRACT | 0.0583 | 6.81
67 | P12ICHIKAWA_HAEMATOPOIETIC_AND_LYMPHOID_TISSUE | 0.121 | 3.63
68 | PA1_OVARY | 0.176 | 1.45
69 | PACADD119_PANCREAS | 0.169 | 4.59
70 | PACADD137_PANCREAS | 0.104 | 8.11
71 | PACADD161_PANCREAS | 0.185 | 5.87
72 | PANC1_PANCREAS | 0.128 | 4.69
73 | PANC0203_PANCREAS | 0.327 | 1.16
74 | PANC0327_PANCREAS | 0.138 | 7.84
75 | PANC0403_PANCREAS | 0.379 | 0.501
76 | PANC0504_PANCREAS | 0.286 | 1.18
